Experimental data published in ChEMBL document CHEMBL5223117, “Synthesis and biological evaluation of novel N, N'-diarylurea derivatives as potent antibacterial agents against MRSA” (Bioorg Med Chem Lett, 2022).
pIC50: −log10 of the molar value. ≈ marks a conversion by molar mass, not a printed value.

Tests used:
Staphylococcus aureus [1] = test: Antibacterial activity against methicillin sensitive Staphylococcus aureus 20-12; format: functional
[2] = test system: Staphylococcus epidermidis; test: Antibacterial activity against methicillin sensitive Staphylococcus epidermidis 17-13; format: functional
[3] = test system: Staphylococcus epidermidis; test: Antibacterial activity against methicillin resistant Staphylococcus epidermidis 19-2; format: functional
Staphylococcus aureus [4] = test: Antibacterial activity against vancomycin intermediate and methicillin resistant Staphylococcus aureus ATCC 700699; format: functional
Staphylococcus aureus [5] = test: Antibacterial activity against vancomycin intermediate and methicillin resistant Staphylococcus aureus ATCC 700698; format: functional
[6] = test system: Staphylococcus epidermidis; test: Antibacterial activity against methicillin resistant Staphylococcus epidermidis 19-1; format: functional
Staphylococcus aureus [7] = test: Selectivity ratio of MBC for bactericidal activity against methicillin resistant Staphylococcus aureus ATCC 43300 to MIC for antibacterial activity against methicillin resistant Staphylococcus aureus ATCC 43300; format: functional
[8] = test system: Staphylococcus epidermidis; test: Antibacterial activity against methicillin sensitive Staphylococcus epidermidis ATCC 12228; format: functional
Enterococcus faecium [9] = test: Antibacterial activity against Vanomycin-resistant Enterococcus faecium ATCC 700221; format: functional
Enterococcus faecalis [10] = test: Antibacterial activity against Vanomycin-resistant Enterococcus faecalis ATCC 51299; format: functional
Enterococcus faecium [11] = test: Antibacterial activity against Vanomycin-resistant Enterococcus faecium ATCC 51559; format: functional
Enterococcus faecium [12] = test: Selectivity ratio of MBC for bactericidal activity against Vanomycin-resistant Enterococcus faecium ATCC 700221 to MIC for antibacterial activity against Vanomycin-resistant Enterococcus faecium ATCC 700221; format: functional
Staphylococcus aureus [13] = test: Antibacterial activity against methicillin resistant Staphylococcus aureus 16-30; format: functional
Staphylococcus aureus [14] = test: Antibacterial activity against methicillin resistant Staphylococcus aureus ATCC 33591; format: functional
Staphylococcus aureus [15] = test: Bactericidal activity against methicillin resistant Staphylococcus aureus 16-30; format: functional
Staphylococcus aureus [16] = test: Bactericidal activity against methicillin resistant Staphylococcus aureus ATCC 33591; format: functional
Staphylococcus aureus [17] = test: Antibacterial activity against methicillin sensitive Staphylococcus aureus ATCC 29213; format: functional
[18] = Cytotoxicity against human HeLa cells by SRB assay; format: toxicity, cell-based
Staphylococcus aureus [19] = test: Selectivity ratio of MBC for bactericidal activity against vancomycin intermediate and methicillin resistant Staphylococcus aureus ATCC 700698 to MIC for antibacterial activity against vancomycin intermediate and methicillin resistant Staphylococcus aureus ATCC 700698; format: functional
Enterococcus faecalis [20] = test: Antibacterial activity against Vanomycin-resistant Enterococcus faecalis ATCC 51575; format: functional
Staphylococcus aureus [21] = test: Bactericidal activity against methicillin resistant Staphylococcus aureus ATCC 43300; format: functional
Staphylococcus aureus [22] = test: Antibacterial activity against methicillin resistant Staphylococcus aureus 18-2; format: functional
Enterococcus faecalis [23] = test: Bactericidal activity against Vanomycin-resistant Enterococcus faecalis ATCC 51299; format: functional
Staphylococcus aureus [24] = test: Antibacterial activity against methicillin resistant Staphylococcus aureus ATCC 43300; format: functional
Enterococcus faecium [25] = test: Bactericidal activity against Vanomycin-resistant Enterococcus faecium ATCC 700221; format: functional
Staphylococcus aureus [26] = test: Antibacterial activity against methicillin resistant Staphylococcus aureus 20-11; format: functional
Staphylococcus aureus [27] = test: Selectivity ratio of MBC for bactericidal activity against methicillin resistant Staphylococcus aureus 16-30 to MIC for antibacterial activity against methicillin resistant Staphylococcus aureus 16-30; format: functional
Staphylococcus aureus [28] = test: Antibacterial activity against methicillin sensitive Staphylococcus aureus ATCC 33591; format: functional
Staphylococcus aureus [29] = test: Selectivity ratio of MBC for bactericidal activity against methicillin resistant Staphylococcus aureus ATCC 33591 to MIC for antibacterial activity against methicillin resistant Staphylococcus aureus ATCC 33591; format: functional
Staphylococcus aureus [30] = test: Antibacterial activity against methicillin sensitive Staphylococcus aureus 15; format: functional
Staphylococcus aureus [31] = test: Bactericidal activity against vancomycin intermediate and methicillin resistant Staphylococcus aureus ATCC 700698; format: functional
Enterococcus faecalis [32] = test: Selectivity ratio of MBC for bactericidal activity against Vanomycin-resistant Enterococcus faecalis ATCC 51299 to MIC for antibacterial activity against Vanomycin-resistant Enterococcus faecalis ATCC 51299; format: functional
Enterococcus faecium [33] = test: Antibacterial activity against Vanomycin-resistant Enterococcus faecium 15-6; format: functional
[34] = Cytotoxicity against human HepG2 cells by SRB assay; format: toxicity, cell-based

SMILES	MIC (Staphylococcus aureus [1]) [µM]	MIC [2] [µM]	MIC [3] [µM]	MIC (Staphylococcus aureus [4]) [µM]	MIC (Staphylococcus aureus [5]) [µM]	MIC [6] [µM]	Ratio (Staphylococcus aureus [7])	MIC [8] [µM]	MIC (Enterococcus faecium [9]) [µM]	MIC (Enterococcus faecalis [10]) [µM]	MIC (Enterococcus faecium [11]) [µM]	Ratio (Enterococcus faecium [12])	MIC (Staphylococcus aureus [13]) [µM]	MIC (Staphylococcus aureus [14]) [µM]	MBC (Staphylococcus aureus [15]) [µM]	MBC (Staphylococcus aureus [16]) [µM]	MIC (Staphylococcus aureus [17]) [µM]	pIC50 [18]	Ratio (Staphylococcus aureus [19])	MIC (Enterococcus faecalis [20]) [µM]	other results
O=C(Nc1ccc(OC(F)(F)F)cc1)Nc1ccc(Cl)c(C(F)(F)F)c1	1.25 (≈ 0.498 µg/mL)	0.63 (≈ 0.251 µg/mL)	1.25 (≈ 0.498 µg/mL)	0.15 (≈ 0.0598 µg/mL)	0.63 (≈ 0.251 µg/mL)	1.25 (≈ 0.498 µg/mL)	>255	1.25 (≈ 0.498 µg/mL)	1.25 (≈ 0.498 µg/mL)	2.51 (≈ 1 µg/mL)	2.51 (≈ 1 µg/mL)	>257	2.51 (≈ 1 µg/mL)	1.25 (≈ 0.498 µg/mL)	> 80.3	> 161	0.63 (≈ 0.251 µg/mL)	5.03	>255	2.51 (≈ 1 µg/mL)	MBC (Staphylococcus aureus [21]): > 161 µM; MIC (Staphylococcus aureus [22]): 0.3 µM (≈ 0.12 µg/mL); MBC (Enterococcus faecalis [23]): > 321 µM; MIC (Staphylococcus aureus [24]): 0.63 µM (≈ 0.251 µg/mL); MBC (Enterococcus faecium [25]): > 321 µM; MIC (Staphylococcus aureus [26]): 0.63 µM (≈ 0.251 µg/mL); Ratio (Staphylococcus aureus [27]): >32; MIC (Staphylococcus aureus [28]): 1.25 µM (≈ 0.498 µg/mL); Ratio (Staphylococcus aureus [29]): >128; MIC (Staphylococcus aureus [30]): 1.25 µM (≈ 0.498 µg/mL); MBC (Staphylococcus aureus [31]): > 161 µM; Ratio (Enterococcus faecalis [32]): >128; MIC (Enterococcus faecium [33]): 2.51 µM (≈ 1 µg/mL); pIC50 [34]: 5.20
O=C(Nc1ccc(Cl)c(C(F)(F)F)c1)Nc1cc(F)c(F)c(F)c1F	0.65 (≈ 0.251 µg/mL)	0.31 (≈ 0.12 µg/mL)	0.65 (≈ 0.251 µg/mL)	0.31 (≈ 0.12 µg/mL)	0.31 (≈ 0.12 µg/mL)	0.31 (≈ 0.12 µg/mL)	33	0.65 (≈ 0.251 µg/mL)	1.29 (≈ 0.499 µg/mL)	2.59 (≈ 1 µg/mL)	1.29 (≈ 0.499 µg/mL)	>32	0.65 (≈ 0.251 µg/mL)	0.31 (≈ 0.12 µg/mL)	10.3 (≈ 4 µg/mL)	10.3 (≈ 4 µg/mL)	0.31 (≈ 0.12 µg/mL)	5.05	33	5.17 (≈ 2 µg/mL)	MBC (Staphylococcus aureus [21]): 10.3 µM (≈ 4 µg/mL); MIC (Staphylococcus aureus [22]): 0.31 µM (≈ 0.12 µg/mL); MBC (Enterococcus faecalis [23]): > 82.8 µM; MIC (Staphylococcus aureus [24]): 0.31 µM (≈ 0.12 µg/mL); MBC (Enterococcus faecium [25]): > 82.8 µM; MIC (Staphylococcus aureus [26]): 0.31 µM (≈ 0.12 µg/mL); Ratio (Staphylococcus aureus [27]): 16; MIC (Staphylococcus aureus [28]): 0.31 µM (≈ 0.12 µg/mL); Ratio (Staphylococcus aureus [29]): 33; MIC (Staphylococcus aureus [30]): 0.31 µM (≈ 0.12 µg/mL); MBC (Staphylococcus aureus [31]): 10.3 µM (≈ 4 µg/mL); Ratio (Enterococcus faecalis [32]): >32; MIC (Enterococcus faecium [33]): 1.29 µM (≈ 0.499 µg/mL); pIC50 [34]: 5.15
